Assays:
BRD4 BD2 = biological target: T1, BRD4 BD2 (Homo sapiens, UniProt O60885, Y97A); assay: BRD4 BD2 TR-FRET competition assay; type: binding; details: TR-FRET competition with Reference Compound X; read-out: pIC50 in the BRD4 BD2 assay (converted)
T1 construct: BRD4 (1-477) (Y97A) and (Y390A); made in house; host or cells: E. coli (pET15b vector)
Procedure: (§1) Bromodomain binding was assessed utilising a time resolved fluorescent resonance energy transfer (TR-FRET) competition assay. To enable this approach a known, high affinity, pan-BET interacting small molecule was labelled with Alexa Fluor® 647, which is a far-red-fluorescent dye (Reference Compound X). Reference Compound X acts as a reporter of bromodomain binding and is the acceptor fluorophore component of the TR-FRET pair. Europium chelate, conjugated to an anti-6*His antibody, was utilised as the donor fluorophore in the TR-FRET pair. The anti-6*His antibody binds selectively to a six Histidine purification epitope added to the amino-terminus of each of the BET tandem bromodomain protein constructs used in this study. A TR-FRET signal is generated when the donor and acceptor fluorophores are in close proximity, between 20-80 Å, which is enabled in this assay by binding of Reference Compound X to the bromodomain protein.
(§2) In order to generate a TR-FRET signal, donor fluorophore is excited by a laser at λ337 nm, which subsequently leads to emission at λ618 nm. If the acceptor fluorophore is in close proximity then energy transfer can occur, which leads to emission of Alexa Fluor® 647 at λ665 nm. In the presence of competitor compound, Reference Compound X can be displaced from binding to the bromodomain. If displacement occurs, the acceptor fluorophore is no longer in proximity to the donor fluorophore, which prevents fluorescent energy transfer and, subsequently, a loss of Alexa Fluor® 647 emission at λ665 nm.
(§3) The competition of the compounds of formula (I) with Reference Compound X for binding to the BET family (BRD2, BRD3, BRD4 and BRDT) was assessed using protein truncates spanning both bromodomain 1 (BD1) and bromodomain 2 (BD2). In order to monitor differential binding to either BD1 or BD2, single residue mutations of key tyrosines to alanine were made in the acetyl lysine binding pockets. To validate this approach, a double residue mutant tandem domain protein was produced for each of the BET family members. Utilising a Fluorescence Polarisation approach, binding affinities for each of the single and double mutants for Reference Compound X were determined. […] The affinities of the single mutated bromdomain tandem proteins for Reference Compound X were equi-potent with the corresponding non-mutated BET protein. […] In the TR-FRET competition assay, Reference Compound X is used at a concentration that is equivalent to the Kd for the non-mutated bromodomain, which ensures that no binding at the mutated bromodomain is detected.
(§4) Recombinant Human Bromodomains [(BRD2 (1-473) (Y113A) and (Y386A), BRD3 (1-435) (Y73A) and (Y348A) BRD4 (1-477) (Y97A) and (Y390A) and BRDT (1-397) (Y66A) and (Y309A)] were expressed in E. coli cells (in pET15b vector for BRD2/3/4 and in pET28a vector for BRDT) with a 6-His tag at the N-terminal. The His-tagged Bromodomain pellet was resuspended in 50 mM HEPES (pH 7.5), 300 mM NaCl, 10 mM imidazole & 1 μL/mL protease inhibitor cocktail and extracted from the E. coli cells using sonication and purified using a nickel sepharose high performance column, the proteins were washed and then eluted with a linear gradient of 0-500 mM imidazole with buffer 50 mM HEPES (pH 7.5), 150 mM NaCl, 500 mM imidazole, over 20 column volumes. Final purification was completed by Superdex 200 prep grade size exclusion column. Purified protein was stored at −80° C. in 20 mM HEPES pH 7.5 and 100 mM NaCl. Protein identity was confirmed by peptide mass fingerprinting and predicted molecular weight confirmed by mass spectrometry.
All assay components were dissolved in an assay buffer composing of 50 mM HEPES pH 7.4, 50 mM NaCl, 5% Glycerol, 1 mM DTT and 1 mM CHAPS. Reference Compound X was diluted, in assay buffer containing 20 nM single mutant, tandem bromodomain protein, to a concentration equivalent to 2*Kd for this bromodomain. […]

BRD4 BD1 and BRD4 BD2 = BRD4 BD1 and BRD4 BD2 TR-FRET assays (selectivity for BRD4 BD2 over BRD4 BD1); type: binding, Human; details: for selectivity for BRD4 BD2 over BRD4 BD1: BRD4 BD2 pIC50 − BRD4 BD1 pIC50, in at least one of the TR-FRET assays
Procedure: as §1, §2, §3
as §4, with “Protein identity was confirmed by peptide mass fingerprinting and predicted molecular weight confirmed by mass spectrometry.” left out

[1] = system: BET family (BRD2, BRD3, BRD4 and BRDT) tandem bromodomain proteins; assay: Fluorescence Polarisation binding of Reference Compound X to single and double mutant tandem BET proteins; set-up: species or system Human; details: single residue (Tyr to Ala) mutants
Procedure: as §3, with “detected. […]” for “detected.”

| SMILES | IC50 (BRD4 BD2) [µM] | selectivity for BRD4 BD2 over BRD4 BD1 (BRD4 BD1 and BRD4 BD2) [log unit] | affinity of single mutated bromodomain tandem proteins compared with corresponding non-mutated BET protein [1] | fold selective for BRD4 BD2 over BRD4 BD1 (BRD4 BD1 and BRD4 BD2; from the pIC50 difference) [fold] |
| --- | --- | --- | --- | --- |
| COc1ccc2c(c1)C(c1ccc(Cl)cc1)=N[C@@H](CC(=O)NCCCCCNC(=O)CCCCCC1(C)/C(=C/C=C/C=C/C3=[N+](CCCCS(=O)(=O)O)c4ccc(S(=O)(=O)O)cc4C3(C)C)N(CCCCS(=O)(=O)[O-])c3ccc(S(=O)(=O)O)cc31)c1nnc(C)n1-2 (stereo partly shown) [Reference Compound X] |  |  | equi-potent |  |
| CNC(=O)c1cc(C(=O)NCC(C)O)cc(Cc2ccccc2)n1 (racemic) [Example 61, (+/−)-6-Benzyl-N^4-(2-hydroxypropyl)-N^2-methylpyridine-2,4-dicarboxamide] | 1 to 10 |  |  |  |
| CNC(=O)c1cc(C(=O)Nc2cn[nH]c2)cc(Cc2ccccc2)n1 [Example 12, 6-Benzyl-N^2-methyl-N^4-(1H-pyrazol-4-yl)pyridine-2,4-dicarboxamide] | 0.02 | 2.7 |  |  |
| CNC(=O)c1cc(C(=O)NCCOC)cc(Cc2cccc(OC)c2)n1 [Example 59, 6-(3-Methoxybenzyl)-N^4-(2-methoxyethyl)-N^2-methylpyridine-2,4-dicarboxamide] | 1 to 10 |  |  |  |
| CNC(=O)c1cc(C(=O)NC(C)(C)C)cc(Cc2ccccc2)n1 [Example 66, 6-Benzyl-N^4-(tert-butyl)-N^2-methylpyridine-2,4-dicarboxamide] | 1 to 10 |  |  |  |

Continued, in another order:

| IC50 (BRD4 BD2) [µM] | SMILES | selectivity for BRD4 BD2 over BRD4 BD1 (BRD4 BD1 and BRD4 BD2) [log unit] | affinity of single mutated bromodomain tandem proteins compared with corresponding non-mutated BET protein [1] | fold selective for BRD4 BD2 over BRD4 BD1 (BRD4 BD1 and BRD4 BD2; from the pIC50 difference) [fold] |
| --- | --- | --- | --- | --- |
| 1 to 10 | CNC(=O)c1cc(C(=O)Nc2nnc(C)o2)cc([C@@H](C)c2ccccc2)n1 [Example 75, (S)-N^2-Methyl-N^4-(5-methyl-1,3,4-oxadiazol-2-yl)-6-(1-phenylethyl)pyridine-2,4-dicarboxamide] |  |  |  |
| 0.02 | CNC(=O)c1cc(C(=O)Nc2cn[nH]c2)cc(C(OC)c2ccccc2)n1 (single isomer, unassigned) [Example 55, (S*)-6-(Methoxy(phenyl)methyl)-N^2-methyl-N^4-(1H-pyrazol-4-yl)pyridine-2,4-dicarboxamide] | 2.7 |  |  |
| 1 to 10 | CNC(=O)c1cc(C(=O)Nc2nc(C)no2)cc([C@@H](C)c2ccccc2)n1 [Example 74, (S)-N^2-Methyl-N^4-(3-methyl-1,2,4-oxadiazol-5-yl)-6-(1-phenylethyl)pyridine-2,4-dicarboxamide] |  |  |  |
| 0.0158 | CNC(=O)c1cc(C(=O)Nc2cnn(C)c2)cc(Cc2ccccc2)n1 [Example 11, 6-Benzyl-N^2-methyl-N^4-(1-methyl-1H-pyrazol-4-yl)pyridine-2,4-dicarboxamide] | 2.7 |  |  |
| 1 to 10 | CNC(=O)c1cc(C(=O)Nc2nncn2C)cc([C@@H](C)c2ccccc2)n1 [Example 76, (S)-N^2-Methyl-N^4-(4-methyl-4H-1,2,4-triazol-3-yl)-6-(1-phenylethyl)pyridine-2,4-dicarboxamide] |  |  |  |
| 0.01 | CNC(=O)c1cc(C(=O)Nc2cn[nH]c2)cc([C@@H](C)c2ccccc2)n1 [Example 16, (S)-N^2-Methyl-6-(1-phenylethyl)-N^4-(1H-pyrazol-4-yl)pyridine-2,4-dicarboxamide] | 3.0 |  | 1000 |
